Assay results: ChEMBL document CHEMBL4219144, “Novel 6-aryl substituted 4-pyrrolidineaminoquinazoline derivatives as potent phosphoinositide 3-kinase delta (PI3Kδ) inhibitors” (Bioorg Med Chem, 2018)

Tests used:
[1] = target: T1, Phosphatidylinositol 4,5-bisphosphate 3-kinase catalytic subunit delta isoform (Homo sapiens) (UniProt O00329); assay: Inhibition of PI3K p110delta (unknown origin) at 100 nM using lipid substrate after 40 mins by kinase-Glo assay relative to control
T1 sequence (whole entry): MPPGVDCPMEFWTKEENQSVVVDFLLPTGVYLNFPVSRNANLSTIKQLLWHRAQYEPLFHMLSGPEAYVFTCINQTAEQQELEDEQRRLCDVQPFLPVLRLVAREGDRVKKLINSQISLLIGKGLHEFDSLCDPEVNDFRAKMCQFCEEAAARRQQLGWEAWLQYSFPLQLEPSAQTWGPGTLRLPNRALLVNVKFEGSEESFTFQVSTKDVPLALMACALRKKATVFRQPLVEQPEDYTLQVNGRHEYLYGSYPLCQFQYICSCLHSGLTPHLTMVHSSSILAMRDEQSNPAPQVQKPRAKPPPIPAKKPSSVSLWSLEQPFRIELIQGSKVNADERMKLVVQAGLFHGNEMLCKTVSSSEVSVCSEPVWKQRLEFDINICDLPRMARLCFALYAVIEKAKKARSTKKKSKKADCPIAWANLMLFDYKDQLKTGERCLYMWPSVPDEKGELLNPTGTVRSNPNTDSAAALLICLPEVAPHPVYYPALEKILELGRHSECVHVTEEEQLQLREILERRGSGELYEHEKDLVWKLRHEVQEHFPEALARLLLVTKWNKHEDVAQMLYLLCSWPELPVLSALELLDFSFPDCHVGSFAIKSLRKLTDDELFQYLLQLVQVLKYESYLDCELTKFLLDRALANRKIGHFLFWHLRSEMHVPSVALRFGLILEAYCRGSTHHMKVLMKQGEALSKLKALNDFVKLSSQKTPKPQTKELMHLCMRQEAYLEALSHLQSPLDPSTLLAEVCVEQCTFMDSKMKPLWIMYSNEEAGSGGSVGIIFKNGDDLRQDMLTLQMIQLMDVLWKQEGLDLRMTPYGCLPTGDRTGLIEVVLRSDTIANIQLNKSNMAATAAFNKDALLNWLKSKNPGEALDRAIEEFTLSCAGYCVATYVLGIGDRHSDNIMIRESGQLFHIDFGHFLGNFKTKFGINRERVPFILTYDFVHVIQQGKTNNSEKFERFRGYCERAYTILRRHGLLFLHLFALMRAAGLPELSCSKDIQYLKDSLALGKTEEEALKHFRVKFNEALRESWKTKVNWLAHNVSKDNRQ

[2] = target: T2, Phosphatidylinositol 4,5-bisphosphate 3-kinase catalytic subunit delta isoform (Homo sapiens, UniProt O00329); assay: Inhibition of PI3K p110delta (unknown origin) using lipid substrate after 40 mins by kinase-Glo assay
T2 sequence (O00329 whole entry): T1 sequence (whole entry)

[3] = target: Phosphatidylinositol 4,5-bisphosphate 3-kinase catalytic subunit alpha isoform (Homo sapiens, UniProt P42336); assay: Inhibition of PI3K p110alpha (unknown origin) using lipid substrate after 40 mins by kinase-Glo assay
[4] = target: Phosphatidylinositol 4,5-bisphosphate 3-kinase catalytic subunit beta isoform (Homo sapiens, UniProt P42338); assay: Inhibition of PI3K p110beta (unknown origin) using lipid substrate after 40 mins by kinase-Glo assay
[5] = target: Phosphatidylinositol 4,5-bisphosphate 3-kinase catalytic subunit gamma isoform (Homo sapiens, UniProt P48736); assay: Inhibition of PI3K p110gamma (unknown origin) using lipid substrate after 40 mins by kinase-Glo assay
Ramos = assay: cells; format: functional, cell-based; settings: Homo sapiens, 72 h
Description: Antiproliferative activity against human Ramos cells after 72 hrs by MTT assay

Raji = assay: cells; format: functional, cell-based; settings: Homo sapiens, 72 h
Description: Antiproliferative activity against human Raji cells after 72 hrs by MTT assay

RPMI-8226 = assay: Antiproliferative activity against human RPMI8226 cells after 72 hrs by MTT assay; format: functional, cell-based; settings: RPMI-8226, 72 h
SU-DHL-6 = assay: Antiproliferative activity against human SUDHL6 cells after 72 hrs by CCK8 assay; format: functional, cell-based; settings: SU-DHL-6, 72 h
[6] = Cmax in Sprague-Dawley rat at 10 mg/kg, po by LC-MS/MS analysis; format: ADME, organism-based; design: dose 10 mg/kg, route oral; settings: in vivo
[7] = AUC in Sprague-Dawley rat at 10 mg/kg, po by LC-MS/MS analysis; format: ADME, organism-based; settings: in vivo
Homo sapiens [8] = organism: Homo sapiens; assay: Selectivity ratio of IC50 for PI3K p110alpha (unknown origin) to IC50 for PI3K p110delta (unknown origin)
Homo sapiens [9] = organism: Homo sapiens; assay: Selectivity ratio of IC50 for PI3K p110beta (unknown origin) to IC50 for PI3K p110delta (unknown origin)
Homo sapiens [10] = organism: Homo sapiens; assay: Selectivity ratio of IC50 for PI3K p110gamma (unknown origin) to IC50 for PI3K p110delta (unknown origin)
Rattus norvegicus [11] = assay: Clearance in Sprague-Dawley rat at 10 mg/kg, po by LC-MS/MS analysis; format: ADME, organism-based; settings: in vivo
Rattus norvegicus [12] = assay: Apparent volume of distribution in Sprague-Dawley rat at 10 mg/kg, po by LC-MS/MS analysis; format: ADME, organism-based; settings: in vivo
Rattus norvegicus [13] = assay: Half life in Sprague-Dawley rat at 10 mg/kg, po by LC-MS/MS analysis; format: ADME, organism-based; settings: in vivo
[14] = target: T2, Phosphatidylinositol 4,5-bisphosphate 3-kinase catalytic subunit delta isoform; assay: Inhibition of PI3Kdelta (unknown origin)
[15] = Cmax in Sprague-Dawley rat at 3 mg/kg, po by LC-MS/MS analysis; format: ADME, organism-based; design: dose 3 mg/kg, route oral; settings: in vivo
[16] = AUC in Sprague-Dawley rat at 3 mg/kg, po by LC-MS/MS analysis; format: ADME, organism-based; settings: in vivo
[17] = Oral bioavailability in Sprague-Dawley rat at 3 mg/kg by LC-MS/MS analysis; format: ADME, organism-based; settings: in vivo

Sequence of Phosphatidylinositol 4,5-bisphosphate 3-kinase catalytic subunit beta isoform (P42338 whole entry, canonical isoform): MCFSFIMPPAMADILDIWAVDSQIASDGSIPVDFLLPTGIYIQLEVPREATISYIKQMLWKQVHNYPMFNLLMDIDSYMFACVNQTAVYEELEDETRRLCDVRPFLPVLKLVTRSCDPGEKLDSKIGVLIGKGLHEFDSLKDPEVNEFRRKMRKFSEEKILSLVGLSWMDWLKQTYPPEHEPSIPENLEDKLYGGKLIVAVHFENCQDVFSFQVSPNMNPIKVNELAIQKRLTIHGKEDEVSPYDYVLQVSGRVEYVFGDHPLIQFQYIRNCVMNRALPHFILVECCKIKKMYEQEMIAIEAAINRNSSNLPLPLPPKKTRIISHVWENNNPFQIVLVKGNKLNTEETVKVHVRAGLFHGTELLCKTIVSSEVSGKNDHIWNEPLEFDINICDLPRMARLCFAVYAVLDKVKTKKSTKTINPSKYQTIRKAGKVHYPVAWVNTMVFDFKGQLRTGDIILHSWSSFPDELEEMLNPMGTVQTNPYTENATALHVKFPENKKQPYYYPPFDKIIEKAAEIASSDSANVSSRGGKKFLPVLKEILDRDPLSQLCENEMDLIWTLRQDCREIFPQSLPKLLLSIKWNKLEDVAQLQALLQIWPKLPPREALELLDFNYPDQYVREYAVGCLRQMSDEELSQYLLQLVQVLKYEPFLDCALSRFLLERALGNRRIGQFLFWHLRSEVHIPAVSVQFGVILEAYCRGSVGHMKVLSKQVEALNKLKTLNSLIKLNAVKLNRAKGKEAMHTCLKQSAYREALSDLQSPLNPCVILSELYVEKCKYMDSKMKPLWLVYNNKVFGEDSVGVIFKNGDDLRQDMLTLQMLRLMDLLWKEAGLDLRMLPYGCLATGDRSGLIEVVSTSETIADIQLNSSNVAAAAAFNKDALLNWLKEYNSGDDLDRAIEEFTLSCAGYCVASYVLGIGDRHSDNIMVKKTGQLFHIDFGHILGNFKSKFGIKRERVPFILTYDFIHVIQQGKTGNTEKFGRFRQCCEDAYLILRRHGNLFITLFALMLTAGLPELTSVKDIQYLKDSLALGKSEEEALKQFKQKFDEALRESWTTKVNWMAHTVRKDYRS
Sequence of Phosphatidylinositol 4,5-bisphosphate 3-kinase catalytic subunit alpha isoform (P42336 whole entry, canonical isoform): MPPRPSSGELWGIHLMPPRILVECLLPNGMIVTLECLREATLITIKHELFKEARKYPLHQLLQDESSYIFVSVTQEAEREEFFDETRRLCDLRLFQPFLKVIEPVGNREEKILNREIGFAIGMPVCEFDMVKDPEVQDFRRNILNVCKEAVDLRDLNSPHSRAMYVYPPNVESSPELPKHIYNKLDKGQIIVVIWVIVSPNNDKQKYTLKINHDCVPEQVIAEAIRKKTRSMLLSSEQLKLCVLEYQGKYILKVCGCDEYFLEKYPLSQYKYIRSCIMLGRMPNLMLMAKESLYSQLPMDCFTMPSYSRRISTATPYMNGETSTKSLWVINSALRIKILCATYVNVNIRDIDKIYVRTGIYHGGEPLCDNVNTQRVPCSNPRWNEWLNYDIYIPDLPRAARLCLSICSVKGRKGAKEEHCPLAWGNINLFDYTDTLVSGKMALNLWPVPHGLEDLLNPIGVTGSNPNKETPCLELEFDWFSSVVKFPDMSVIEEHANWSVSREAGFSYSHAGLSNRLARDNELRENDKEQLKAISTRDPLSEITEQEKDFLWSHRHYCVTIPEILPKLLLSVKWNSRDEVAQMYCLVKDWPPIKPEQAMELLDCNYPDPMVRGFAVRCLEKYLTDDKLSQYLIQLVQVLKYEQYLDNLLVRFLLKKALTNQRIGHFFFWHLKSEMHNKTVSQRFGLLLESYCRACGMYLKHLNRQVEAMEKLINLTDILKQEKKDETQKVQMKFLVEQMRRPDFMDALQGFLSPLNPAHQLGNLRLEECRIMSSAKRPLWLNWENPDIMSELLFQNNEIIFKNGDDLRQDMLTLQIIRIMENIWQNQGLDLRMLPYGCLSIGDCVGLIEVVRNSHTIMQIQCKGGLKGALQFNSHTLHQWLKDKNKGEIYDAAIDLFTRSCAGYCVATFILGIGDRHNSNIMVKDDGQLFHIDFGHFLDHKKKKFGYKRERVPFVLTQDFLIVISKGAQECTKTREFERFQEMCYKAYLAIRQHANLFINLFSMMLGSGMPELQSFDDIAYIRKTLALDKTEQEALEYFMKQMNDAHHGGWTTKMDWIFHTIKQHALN
Sequence of Phosphatidylinositol 4,5-bisphosphate 3-kinase catalytic subunit gamma isoform (P48736 whole entry, canonical isoform): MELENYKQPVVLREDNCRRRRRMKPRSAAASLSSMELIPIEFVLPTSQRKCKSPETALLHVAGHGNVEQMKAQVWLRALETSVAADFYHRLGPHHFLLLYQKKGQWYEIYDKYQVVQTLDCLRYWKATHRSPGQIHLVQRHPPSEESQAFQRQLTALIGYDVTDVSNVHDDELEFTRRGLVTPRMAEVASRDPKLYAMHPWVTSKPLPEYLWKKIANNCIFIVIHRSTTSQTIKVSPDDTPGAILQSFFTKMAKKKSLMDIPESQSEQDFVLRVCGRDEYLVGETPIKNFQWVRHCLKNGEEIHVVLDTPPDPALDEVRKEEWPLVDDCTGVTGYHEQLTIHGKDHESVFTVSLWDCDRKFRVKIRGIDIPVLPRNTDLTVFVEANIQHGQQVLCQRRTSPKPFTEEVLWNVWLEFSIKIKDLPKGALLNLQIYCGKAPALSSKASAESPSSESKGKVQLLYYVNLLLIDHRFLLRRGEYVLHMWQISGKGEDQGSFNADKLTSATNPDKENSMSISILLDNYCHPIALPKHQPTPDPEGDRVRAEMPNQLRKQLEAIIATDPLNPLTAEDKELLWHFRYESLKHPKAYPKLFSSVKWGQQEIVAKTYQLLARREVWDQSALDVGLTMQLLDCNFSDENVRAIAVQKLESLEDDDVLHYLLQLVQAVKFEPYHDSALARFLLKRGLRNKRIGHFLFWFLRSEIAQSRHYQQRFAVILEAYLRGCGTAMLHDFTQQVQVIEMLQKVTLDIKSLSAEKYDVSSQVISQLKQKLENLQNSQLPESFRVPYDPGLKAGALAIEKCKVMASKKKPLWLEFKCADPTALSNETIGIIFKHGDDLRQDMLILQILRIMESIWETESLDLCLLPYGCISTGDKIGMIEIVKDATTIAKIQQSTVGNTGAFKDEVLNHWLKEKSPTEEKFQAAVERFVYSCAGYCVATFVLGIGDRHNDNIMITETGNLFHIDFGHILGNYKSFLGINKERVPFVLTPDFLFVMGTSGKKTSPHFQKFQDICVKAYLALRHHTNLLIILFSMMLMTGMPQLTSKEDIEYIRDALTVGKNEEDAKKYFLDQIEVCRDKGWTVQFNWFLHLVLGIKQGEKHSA

Row | SMILES | inhibition [1] [%] | IC50 [2] [nM] | other results
1 | CC(C)(C)OC(=O)N1CC[C@H](Nc2ncnc3ccc(-c4ccc(N)nc4)cc23)C1 | 17 |  | 
2 | COc1ncc(-c2ccc3ncnc(N[C@H]4CCN(C(=O)OC(C)(C)C)C4)c3c2)cc1[N+](=O)[O-] | 51 |  | 
3 | COc1ccc(-c2ccc3ncnc(N[C@H]4CCN(C(=O)C5CCOCC5)C4)c3c2)cc1C(N)=O | 92 | 7.8 | 
4 | COc1ncc(-c2ccc3ncnc(N[C@H]4CCN(C(=O)C5CCOCC5)C4)c3c2)cc1C#N | 99 | 2.7 | IC50 [3]: 25.6 nM; IC50 [4]: 264 nM; IC50 [5]: 174 nM; IC50 (Ramos): 570 nM; IC50 (Raji): > 10000 nM; IC50 (RPMI-8226): 4340 nM; IC50 (SU-DHL-6): 4550 nM; Cmax [6]: 664 ng/mL; AUC [7]: 524 ng·h/mL; Ratio IC50 (Homo sapiens [8]): 10; Ratio IC50 (Homo sapiens [9]): 100; Ratio IC50 (Homo sapiens [10]): 65; CL (Rattus norvegicus [11]): 40 mL/min/kg; Vz (Rattus norvegicus [12]): 113 L/kg; t1/2 (Rattus norvegicus [13]): 2.99 h
5 | CC(C)(C)OC(=O)N1CC[C@H](Nc2ncnc3ccc(-c4cnc(N)nc4)cc23)C1 | 44 |  | 
6 | COc1ccc(-c2ccc3ncnc(N[C@H]4CCN(C(=O)OC(C)(C)C)C4)c3c2)cc1C(N)=O | 74 |  | 
7 | COc1ccc(-c2ccc3ncnc(N[C@H]4CCN(C(=O)c5ccco5)C4)c3c2)cn1 | 97 | 5.5 | 
8 | COc1ncc(-c2ccc3ncnc(N[C@H]4CCN(C(=O)OC(C)(C)C)C4)c3c2)cc1C#N | 88 | 18.7 | 
9 | CC(C)(C)OC(=O)N1CC[C@H](Nc2ncnc3ccc(-c4ccc(OC(F)(F)F)cc4)cc23)C1 | 2 |  | 
10 | COc1ncc(-c2ccc3ncnc(N[C@H]4CCN(C(=O)C5CC5)C4)c3c2)cc1C#N | 97 | 5.5 | 
11 | COc1ccc(-c2ccc3ncnc(N[C@H]4CCN(C(=O)OC(C)(C)C)C4)c3c2)cn1 | 91 | 8.1 | 
12 | COc1ccc(-c2ccc3ncnc(N[C@H]4CCN(C(=O)C5CCCCC5)C4)c3c2)cn1 | 85 | 2.9 | 
13 | O=C(C1CC1)N1CC[C@H](Nc2ncnc3ccc(-c4ccc(OC(F)(F)F)cc4)cc23)C1 | 13 |  | 
14 | COc1ccc(-c2ccc3ncnc(N[C@@H]4CCN(C(=O)C5CCOCC5)C4)c3c2)cn1 | 46 |  | 
15 | COc1ccc(-c2ccc3ncnc(N[C@H]4CCN(C(=O)C5CCCC5)C4)c3c2)cn1 | 97 | 4.4 | 
16 | O=C(CCCCCCC(=O)Nc1ccccc1)NO [VORINOSTAT] |  |  | IC50 (RPMI-8226): 660 nM
17 | COc1ccc(-c2ccc3ncnc(N[C@H]4CCN(C(=O)C(C)(C)C)C4)c3c2)cn1 | 79 |  | 

Row | SMILES | inhibition [1] [%] | IC50 [2] [nM] | other results
18 | COc1ccc(-c2ccc3ncnc(N[C@H]4CCN(C(=O)C5CCC5)C4)c3c2)cn1 | 98 | 5.2 | 
19 | COc1ccc(-c2ccc3ncnc(N[C@H]4CCN(C(=O)Cc5ccccc5)C4)c3c2)cn1 | 79 |  | 
20 | COc1ncc(-c2ccc3ncnc(N[C@H]4CCN(C(=O)C5CCOCC5)C4)c3c2)cc1[N+](=O)[O-] | 99 | 3.1 | IC50 [3]: 26.7 nM; IC50 [4]: 585 nM; IC50 [5]: 199 nM; IC50 (Ramos): 780 nM; IC50 (Raji): 1480 nM; IC50 (RPMI-8226): 2710 nM; IC50 (SU-DHL-6): 5970 nM
21 | COc1ccc(-c2ccc3ncnc(N[C@H]4CCNC4)c3c2)cn1 | 38 |  | 
22 | COc1ccc(-c2ccc3ncnc(N[C@H]4CCN(C(C)=O)C4)c3c2)cn1 | 79 |  | 
23 | COc1cc(C(N)=O)cc(-c2ccc3ncnc(N[C@H]4CCN(C(=O)OC(C)(C)C)C4)c3c2)c1 | 82 |  | 
24 | NC(=O)c1cc(-c2ccc3ncnc(-c4cccc(C(=O)NCCN5CCOCC5)c4)c3c2)ccc1Cl |  |  | IC50 [14]: 17 nM
25 | COc1ccc(-c2ccc3ncnc(N[C@@H]4CCN(C(=O)OC(C)(C)C)C4)c3c2)cn1 | 0 |  | 
26 | C=CC(=O)N1CC[C@H](Nc2ncnc3ccc(-c4ccc(OC)nc4)cc23)C1 | 0 |  | 
27 | COc1ccc(-c2ccc3ncnc(N[C@H]4CCN(S(=O)(=O)C5CC5)C4)c3c2)cn1 | 83 | 13.5 | 
28 | COc1ccc(-c2ccc3ncnc(N[C@H]4CCN(C(=O)c5ccccc5)C4)c3c2)cn1 | 87 | 3 | 
29 | CC[C@H](Nc1ncnc2[nH]cnc12)c1nc2cccc(F)c2c(=O)n1-c1ccccc1 [IDELALISIB] | 96 |  | IC50 (Ramos): > 10000 nM; IC50 (Raji): 9950 nM; IC50 (RPMI-8226): 5490 nM; IC50 (SU-DHL-6): 650 nM; Cmax [15]: 129 ng/mL; AUC [16]: 422 ng·h/mL; bioavailability [17]: 39%
30 | COc1ccc(-c2ccc3ncnc(N[C@H]4CCN(C(=O)CC(C)(C)C)C4)c3c2)cn1 | 94 | 4.6 | 
31 | COc1ccc(-c2ccc3ncnc(N[C@H]4CCN(C(=O)C5CCOCC5)C4)c3c2)cn1 | 97 | 3.4 | 
32 | COc1ccc(-c2ccc3ncnc(N[C@H]4CCN(C(=O)C5CC5)C4)c3c2)cn1 | 97 | 4.5 | IC50 [3]: 25.4 nM; IC50 [4]: 220 nM; IC50 [5]: 224 nM; IC50 (Ramos): 520 nM; IC50 (Raji): 2130 nM; IC50 (RPMI-8226): 1460 nM; IC50 (SU-DHL-6): 500 nM
33 | COc1ccc(-c2ccc3ncnc(N[C@H]4CCN(C(=O)C5CC5)C4)c3c2)cc1C(N)=O | 84 |  | 
